According to patent publication EP4104902B1, “COMPOUNDS AND M[…] SAME” (priority 2020, dated 2021):

Tested on: recombinant rabies virus 1088 strain expressing Gaussia Luciferase (GLuc) (1088/GLuc)
Format: cell-based
Conditions: read-out: Anti-rabies activity

SMILES	IC50 [µM]
NC(=O)CCNC(=O)C12NCC3CC1CN(CCc1ccccc1)C2C3Cc1ccccc1 (stereo not shown) [IB-707]	< 5
CC(C)CCNC(=O)[C@@]12C[C@@H]3CN(CCc4ccccc4)[C@@H]([C@@H]3CN1)[C@H]2CC(C)C (relative stereo) [IF-657]	< 5
CC(C)CC[C@@H]1[C@@H]2CN[C@@]3(C(=O)NCCO)[C@@H](C2)CN(Cc2ccccc2)[C@@H]13 (relative stereo) [IB-680]	10 to 30
CC(C)CC1C2CNC3(C(=O)NCc4ccccc4)C(C2)CN(Cc2cccc(Cl)c2)C13 (stereo not shown) [IB-865]	5 to 10
CC(C)CCNC(=O)[C@]12NC[C@@H]3C[C@H]1CN(Cc1ccccc1)[C@H]2[C@@H]3Cc1ccc(O)cc1 (relative stereo) [IB-678]	< 5
CC(C)CC[C@@H]1[C@@H]2[C@@H]3CN[C@@]1(C(=O)NC(C)C)C[C@@H]3CN2Cc1ccc(O)cc1 (relative stereo) [IF-503]	< 5
O=C(NCc1cccc2ccccc12)C12CC3CN(Cc4ccccc4)C(C3CN1)C2Cc1ccccc1 (stereo not shown) [IF-805]	10 to 30
CC(C)CC[C@@H]1[C@@H]2CN[C@@]3(C(=O)NCc4ccc(F)cc4)[C@@H](C2)CN(CCO)[C@@H]13 (relative stereo) [IB-657]	10 to 30
CC(C)CCN1C[C@H]2C[C@]3(C(=O)NCc4ccc(O)cc4)NC[C@H]2[C@H]1[C@H]3Cc1ccccc1 (relative stereo) [IF-466]	10 to 30
N=C(N)NCCCNC(=O)[C@]12NC[C@@H]3C[C@H]1CN(CCc1ccccc1)[C@H]2[C@@H]3Cc1cccc2ccccc12 (relative stereo) [IB-347]	10 to 30
O=C(NCc1ccc(F)cc1)C12NCC3CC1CN(CCO)C2C3Cc1cccc2ccccc12 (stereo not shown) [IB-831]	< 5
CN1CC2CC3C=NC2(C(=O)NCCc2cccc4cccnc24)C1C3Cc1ccccc1 (stereo not shown) [IIB-329]	< 5
CC(C)CN1CC2CC3CNC2(C(=O)NCc2ccc(F)cc2)C1C3Cc1ccc(O)cc1 (stereo not shown) [IB-498]	< 5
CCCCCCNC(=O)[C@@]12C[C@@H]3CN(CC(N)=O)[C@@H]([C@@H]3CN1)[C@H]2CCc1ccccc1 (relative stereo) [IF-109]	10 to 30
CC(C)CCN1C[C@@H]2C[C@H]3CN[C@]2(C(=O)NCC(C)C)[C@@H]1[C@@H]3CC(C)C (relative stereo) [IB-753]	< 5
CC(C)C[C@@H]1[C@@H]2[C@@H]3CN[C@@]1(C(=O)NCc1cccc4ccccc14)C[C@@H]3CN2Cc1ccccc1 (relative stereo) [IF-837]	5 to 10
CC(C)CCC1C2CNC3(C(=O)NCc4cccc5ccccc45)C(C2)CN(CCC(=O)O)C13 (stereo not shown) [IB-398]	10 to 30
O=C(NCCO)[C@]12NC[C@@H]3C[C@H]1CN(CC1CCCCC1)[C@H]2[C@@H]3CCc1ccccc1 (relative stereo) [IB-663]	< 5
CC(C)CC1C2CNC3(C(=O)NCCc4ccccc4)C(C2)CN(CC(N)=O)C13 (stereo not shown) [IB-86]	10 to 30
CC(C)CC[C@@H]1[C@@H]2CN[C@@]3(C(=O)NCCO)[C@@H](C2)CN(Cc2ccc(F)cc2)[C@@H]13 (relative stereo) [IB-668]	< 5
CCCCCCNC(=O)C12NCC3CC1CN(CCO)C2C3CC(C)C (stereo not shown) [IB-477]	< 5
O=C(NCCO)[C@]12NC[C@@H]3C[C@H]1CN(Cc1ccccc1)[C@H]2[C@@H]3Cc1ccccc1 (relative stereo) [IB-676]	10 to 30
O=C(NCc1ccc(F)cc1)[C@]12NC[C@@H]3C[C@H]1CN(Cc1ccccc1)[C@H]2[C@@H]3CCc1ccccc1 (relative stereo) [IB-568]	10 to 30

SMILES	IC50 [µM]
CC(C)CC[C@@H]1[C@@H]2[C@@H]3CN[C@@]1(C(=O)NCC(C)C)C[C@@H]3CN2Cc1ccccc1 (relative stereo) [IF-411]	< 5
CCCCCCNC(=O)[C@@]12C[C@@H]3CN(CCC(C)C)[C@@H]([C@@H]3CN1)[C@H]2Cc1ccccc1 (relative stereo) [IF-599]	10 to 30
O=C(NCCO)[C@@]12C[C@@H]3CN(Cc4ccc(F)cc4)[C@@H]([C@@H]3CN1)[C@H]2Cc1cccc2ccccc12 (relative stereo) [IF-620]	< 5
CC(C)CC[C@@H]1[C@@H]2[C@@H]3CN[C@@]1(C(=O)NCC(C)C)C[C@@H]3CN2CC(C)C (relative stereo) [IF-412]	< 5
CC(C)NC(=O)C12NCC3CC1CN(Cc1ccc(O)cc1)C2C3Cc1cccc2ccccc12 (stereo not shown) [IB-502]	< 5
NC(=O)CCNC(=O)[C@@]12C[C@@H]3CN(Cc4ccc(F)cc4)[C@@H]([C@@H]3CN1)[C@H]2Cc1cccc2ccccc12 (relative stereo) [IF-539]	< 5
O=C(NCCc1ccccc1)C12CC3CN(CC4CCCCC4)C(C3CN1)C2Cc1ccc(O)cc1 (stereo not shown) [IF-439]	< 5
CC(C)C[C@@H]1[C@@H]2CN[C@@]3(C(=O)NCc4ccc(O)cc4)[C@@H](C2)CN(Cc2ccc(F)cc2)[C@@H]13 (relative stereo) [IB-458]	10 to 30
CC(C)CNC(=O)[C@]12NC[C@@H]3C[C@H]1CN(CC1CCCCC1)[C@H]2[C@@H]3Cc1ccc(O)cc1 (relative stereo) [IB-770]	10 to 30
O=C(NCCO)[C@@]12C[C@@H]3CN(Cc4ccccc4)[C@@H]([C@@H]3CN1)[C@H]2Cc1cccc2ccccc12 (relative stereo) [IF-624]	10 to 30
CC(C)CC1C2C=NC3(C(=O)NCc4ccccc4)C(C2)CN(Cc2cccc(Cl)c2)C13 (stereo not shown) [IIB-84]	< 5
CC(C)C[C@@H]1[C@@H]2CN[C@@]3(C(=O)NCCO)[C@@H](C2)CN(CC2CCCCC2)[C@@H]13 (relative stereo) [IB-646]	10 to 30
CC(C)C[C@@H]1[C@@H]2[C@@H]3CN[C@@]1(C(=O)NCc1cccc4ccccc14)C[C@@H]3CN2Cc1ccc(O)cc1 (relative stereo) [IF-578]	< 5
CC(C)CC[C@@H]1[C@@H]2CN[C@@]3(C(=O)NCc4ccc(O)cc4)[C@@H](C2)CN(CC(C)C)[C@@H]13 (relative stereo) [IB-465]	10 to 30
CC(C)CN1C[C@@H]2C[C@H]3CN[C@]2(C(=O)NCCc2ccccc2)[C@@H]1[C@@H]3Cc1ccc(O)cc1 (relative stereo) [IB-536]	10 to 30
NC(=O)CC1C2C3CNC1(C(=O)NCc1cccc4ccccc14)CC3CN2CCc1ccccc1 (stereo not shown) [IF-223]	10 to 30
NC(=O)CCNC(=O)[C@]12NC[C@@H]3C[C@H]1CN(Cc1ccc(F)cc1)[C@H]2[C@@H]3Cc1cccc2ccccc12 (relative stereo) [IB-525]	10 to 30
CC(C)CN1C[C@H]2C[C@]3(C(=O)NCc4cccc5ccccc45)NC[C@H]2[C@H]1[C@H]3Cc1cccc2ccccc12 (relative stereo) [IF-778]	< 5
NC(=O)C[C@@H]1[C@@H]2[C@@H]3CN[C@@]1(C(=O)NCc1ccc(O)cc1)C[C@@H]3CN2CC1CCCCC1 (relative stereo) [IF-247]	10 to 30
CC(C)C[C@@H]1[C@@H]2[C@@H]3CN[C@@]1(C(=O)NCc1ccc(C(F)(F)F)cc1)C[C@@H]3CN2Cc1ccccc1 (relative stereo) [IF-838]	10 to 30
O=C(O)CCC1C2C3CNC1(C(=O)NCc1ccc(O)cc1)CC3CN2CC1CCCCC1 (stereo not shown) [IF-447]	10 to 30
CC(C)CC[C@@H]1[C@@H]2CN[C@@]3(C(=O)NCCCNC(=N)N)[C@@H](C2)CN(CC2CCCCC2)[C@@H]13 (relative stereo) [IB-361]	10 to 30
CC(C)CN1CC2CC3(C(=O)NCc4ccc(F)cc4)NCC2C1C3Cc1ccccc1 (stereo not shown) [IF-815]	< 5
